Experimental data: ChEMBL document CHEMBL2429713, “Toward drugs for protease-activated receptor 2 (PAR2)” (J Med Chem, 2013)
Values belong to the molecule of their own block, whether it stands above or below them. *1 amine or outer side, *2 acyl side, *3 side chain or, on linkers, in order; H or OH if unused. Where a SMILES comes first, the peptide text is derived from it. [ ]: non-standard residue; d: D form. The star is where a group is joined. X1 = CCCCCCCCCCCCCCCC(=O)OCCOCCOCCNCCC[C@H](N[*:1])C(=O)[*:2]; Phe(4-NO2) = N[C@@H](Cc1ccc([N+](=O)[O-])cc1)C(=O)O; 4Thiazolecarbonyl(2-NH2) = Nc1nc(C(=O)*)cs1; Palmitoyl = CCCCCCCCCCCCCCCC(=O)*; Orn = NCCC[C@H](N)C(=O)O; 2Furoyl = O=C(c1ccco1)*

Experiments:
[1] = molecular target: T1, Proteinase-activated receptor 2 (Rattus norvegicus, UniProt Q63645); experiment: Antagonist activity at rat PAR2 expressed in rat KNRK cells assessed as inhibition of trypsin-induced receptor activation; format: cell-based
T1 sequence (Q63645 whole entry): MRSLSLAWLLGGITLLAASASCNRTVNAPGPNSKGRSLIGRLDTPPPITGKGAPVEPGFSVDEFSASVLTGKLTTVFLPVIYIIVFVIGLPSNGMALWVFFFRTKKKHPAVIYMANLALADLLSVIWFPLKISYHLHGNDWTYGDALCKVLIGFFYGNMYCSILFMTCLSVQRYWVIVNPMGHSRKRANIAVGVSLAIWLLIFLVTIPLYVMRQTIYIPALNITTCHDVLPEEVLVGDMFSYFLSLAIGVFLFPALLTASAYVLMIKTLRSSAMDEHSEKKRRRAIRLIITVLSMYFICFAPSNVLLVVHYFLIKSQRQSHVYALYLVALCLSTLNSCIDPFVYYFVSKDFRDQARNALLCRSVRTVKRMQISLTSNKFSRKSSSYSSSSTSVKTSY

[2] = molecular target: T2, Proteinase-activated receptor 2 (Homo sapiens, UniProt P55085); experiment: Antagonist activity at PAR2 in human HT-29 cells assessed as inhibition of 2f-LIGRLO-NH2-induced intracellular calcium release; format: functional, cell-based
T2 sequence (P55085 whole entry): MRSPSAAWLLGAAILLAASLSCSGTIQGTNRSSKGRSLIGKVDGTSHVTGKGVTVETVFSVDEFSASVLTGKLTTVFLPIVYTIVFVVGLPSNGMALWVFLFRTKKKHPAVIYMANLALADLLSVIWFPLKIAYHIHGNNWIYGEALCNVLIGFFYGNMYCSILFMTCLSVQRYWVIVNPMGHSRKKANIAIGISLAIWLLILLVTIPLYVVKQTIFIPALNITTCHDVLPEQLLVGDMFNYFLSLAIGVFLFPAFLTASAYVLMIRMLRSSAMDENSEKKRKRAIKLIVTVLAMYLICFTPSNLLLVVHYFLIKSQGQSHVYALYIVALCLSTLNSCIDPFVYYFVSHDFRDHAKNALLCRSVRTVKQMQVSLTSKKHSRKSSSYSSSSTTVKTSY

[3] = molecular target: T2, Proteinase-activated receptor 2; experiment: Antagonist activity at PAR2 in human HT-29 cells assessed as inhibition of trypsin-induced intracellular calcium release; format: functional, cell-based
[4] = molecular target: T2, Proteinase-activated receptor 2; experiment: Agonist activity at PAR2 in human HT-29 cells assessed as increase in intracellular calcium release; format: functional, cell-based
[5] = molecular target: T2, Proteinase-activated receptor 2; experiment: Antagonist activity at PAR2 in human HCT15 cells assessed as inhibition of SLIGKV-NH2-induced intracellular calcium release; format: functional, cell-based, HCT-15
[6] = molecular target: T3, Proteinase-activated receptor 1 (Homo sapiens, UniProt P25116); experiment: Agonist activity at human PAR1 expressed in African green monkey COS7 cells assessed as stimulation of inositol triphosphate production; format: functional, cell-based, COS-7
T3 sequence (P25116 whole entry): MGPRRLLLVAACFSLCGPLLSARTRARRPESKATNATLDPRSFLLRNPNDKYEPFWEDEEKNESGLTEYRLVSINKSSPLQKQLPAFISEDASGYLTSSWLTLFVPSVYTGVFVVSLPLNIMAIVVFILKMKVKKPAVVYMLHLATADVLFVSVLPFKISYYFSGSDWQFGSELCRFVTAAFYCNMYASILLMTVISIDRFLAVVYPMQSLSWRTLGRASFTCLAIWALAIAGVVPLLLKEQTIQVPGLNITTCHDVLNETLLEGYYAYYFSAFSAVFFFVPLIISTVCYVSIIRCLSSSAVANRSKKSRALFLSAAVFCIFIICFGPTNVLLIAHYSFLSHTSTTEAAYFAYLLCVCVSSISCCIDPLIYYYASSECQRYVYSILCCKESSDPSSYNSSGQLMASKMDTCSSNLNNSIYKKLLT

[7] = molecular target: T2, Proteinase-activated receptor 2; experiment: Antagonist activity at human PAR2 expressed in human NCTC-2544 cells assessed as inhibition of SLIGKV-NH2-induced NFkappaB activation preincubated for 15 to 30 mins followed by SLIGKV-NH2 addition measured after 6 hrs by luciferase reporter gene assay; format: cell-based
[8] = molecular target: T2, Proteinase-activated receptor 2; experiment: Displacement of [3H]2-furoyl-LIGRL-NH2 from human PAR2 expressed in human NCTC-2544 cells by scintillation counting analysis; format: cell-based
[9] = molecular target: T2, Proteinase-activated receptor 2; experiment: Antagonist activity at human PAR2 expressed in human A549 cells coexpressing TACR1 assessed as inhibition of substance P-induced IL-8 production by ELISA; format: cell-based
[10] = molecular target: T2, Proteinase-activated receptor 2; experiment: Antagonist activity at human PAR2 expressed in human A549 cells assessed as inhibition of 2f-LIGRLO-NH2-induced NFkappaB activation by luciferase reporter gene assay; format: cell-based
[11] = molecular target: Proteinase-activated receptor 2 (Homo sapiens) (UniProt P55085); experiment: Antagonist activity at PAR2 in human SW620 cells assessed as inhibition of SLIGRL-NH2-induced intracellular calcium release at 6 uM relative to control; format: functional, cell-based; parameters: scale not given: the % may be the effect or the level left; details: SW-620
[12] = molecular target: T2, Proteinase-activated receptor 2; experiment: Antagonist activity at PAR2 in human HT-29 cells assessed as inhibition of agonist-induced calcium mobilization; format: functional, cell-based
[13] = molecular target: T2, Proteinase-activated receptor 2; experiment: Displacement of [3H]-2-furoyl-LIGRL-NH2 from human PAR2 expressed in human NCTC-2544 cells after 60 mins by scintillation counting analysis; format: cell-based
[14] = molecular target: T2, Proteinase-activated receptor 2; experiment: Agonist activity at human PAR2 expressed in HEK293T cells assessed as increase in intracellular calcium level by bioluminescence assay; format: functional, cell-based, HEK-293T
[15] = molecular target: T2, Proteinase-activated receptor 2; experiment: Agonist activity at human PAR2 expressed in HEK293T cells assessed as stimulation of phosphatidylinositol hydrolysis after 45 mins by scintillation counting analysis; format: functional, cell-based, HEK-293T
[16] = molecular target: T2, Proteinase-activated receptor 2; experiment: Antagonist activity at PAR2 in human HaCaT cells assessed as inhibition of SLIGKV-NH2-induced intracellular calcium release; format: functional, cell-based
[17] = molecular target: T2, Proteinase-activated receptor 2; experiment: Agonist activity at PAR2 in human 16HBE14o- cells assessed as increase in MAPK level; format: cell-based
[18] = molecular target: T2, Proteinase-activated receptor 2; experiment: Agonist activity at PAR2 in human 16HBE14o- cells assessed as increase in intracellular calcium level; format: functional, cell-based
[19] = molecular target: T2, Proteinase-activated receptor 2; experiment: Agonist activity at PAR2 (unknown origin) by cell-based assay

Structure (SMILES): CC[C@H](C)[C@H](NC(=O)[C@H](CC1CCCCC1)NC(=O)c1ccno1)C(=O)NCc1ccccc1OC
IC50 [2]: 400 nM
IC50 [3]: 1900 nM

Structure (SMILES): Cc1cccc(Cn2c(C)nc3cc(C(=O)N4CCCCC4)ccc32)c1
IC50 [5]: 243000 nM

Structure (SMILES): CC(C)[C@]12O[C@H]1[C@@H]1O[C@]13[C@]1(O[C@H]1C[C@H]1C4=C(CC[C@@]13C)C(=O)OC4)[C@@H]2O [TRIPTOLIDE]
IC50 [9]: 23 nM
IC50 [10]: 14 nM

Structure (SMILES): CCCCCCCCCCCCCCCC(=O)NCC(=O)N[C@@H](CC(=O)O)C(=O)N[C@@H](CCC(=O)O)C(=O)N[C@@H](CC(N)=O)C(=O)N[C@@H](CO)C(=O)N[C@@H](CCC(=O)O)C(=O)N[C@@H](CCCCN)C(=O)N[C@@H](CCCCN)C(=O)N[C@@H](CCCNC(=N)N)C(=O)N[C@@H](CCCCN)C(=O)N[C@@H](CCC(N)=O)C(=O)N[C@@H](C)C(=O)N[C@H](C(=O)N[C@@H](CCCCN)C(=O)O)[C@@H](C)CC (Palmitoyl-GDENSEKKRKQAIK-OH)
Activity [11]: 53%

Structure (SMILES): CC[C@H](C)[C@H](NC(=O)[C@H](CC1CCCCC1)NC(=O)c1ccno1)C(=O)N1CCC2(C=Cc3ccccc32)CC1
IC50 [12]: 1000 nM

Structure (SMILES): C/C(=N\NC(=O)[C@@H]1C(=O)NC[C@H]1c1ccccc1)c1cccc(Br)c1
EC50 [14]: 30 nM
EC50 [15]: 30 nM

Structure (SMILES): CC[C@H](C)[C@H](NC(=O)[C@H](CC1CCCCC1)NC(=O)c1ccno1)C(=O)N1CCC2(CCc3ccccc32)CC1
IC50 [12]: 2000 nM

Structure (SMILES): COc1ccc(Br)c(C(=O)Nn2c(-c3ccc(F)cc3)nc3ccccc3c2=O)c1
IC50 [5]: 34000 nM

Structure (SMILES): CC[C@H](C)[C@H](NC(=O)[C@H](CC(C)C)NC(=O)[C@@H](N)CO)C(=O)NCC(=O)N[C@@H](CCCNC(=N)N)C(=O)N[C@@H](CC(C)C)C(N)=O (H-SLIGRL-NH2)
EC50 [19]: 5000 nM

Further lines, results first:

IC50 [1]: 50000 nM
Structure (SMILES): CC[C@H](C)[C@H](NC(=O)[C@H](CO)NC(=O)[C@@H](N)CC(C)C)C(=O)NCC(=O)N[C@@H](CCCNC(=N)N)C(=O)N[C@@H](CC(C)C)C(N)=O (H-LSIGRL-NH2)

EC50 [4]: 200 nM
Structure (SMILES): CC[C@H](C)[C@H](NC(=O)[C@H](Cc1ccc([N+](=O)[O-])cc1)NC(=O)[C@H](CCCN=C(N)N)NC(=O)CNC(=O)[C@@H](NC(=O)[C@H](CC(C)C)NC(=O)c1ccco1)[C@@H](C)CC)C(N)=O (2Furoyl-LIGR[Phe(4-NO2)]I-NH2)

IC50 [1]: 50000 nM
Structure (SMILES): CC(C)C[C@H](NC(=O)[C@H](CC(C)C)NC(=O)[C@H](CO)NC(=O)[C@@H](N)Cc1ccccc1)C(=O)N[C@@H](CCCNC(=N)N)C(=O)N[C@@H](Cc1ccc(O)cc1)C(N)=O (H-FSLLRY-NH2)

EC50 [6]: 180 nM
Structure (SMILES): CCCCCCCCCCCCCCCC(=O)N[C@@H](CCCN=C(N)N)C(=O)N[C@@H](CS)C(=O)N[C@@H](CC(C)C)C(=O)N[C@@H](CO)C(=O)N[C@@H](CO)C(=O)N[C@@H](CO)C(=O)N[C@@H](C)C(=O)N[C@H](C(=O)N[C@@H](C)C(=O)N[C@@H](CC(N)=O)C(=O)N[C@@H](CCCN=C(N)N)C(=O)N[C@@H](CO)C(=O)N[C@@H](CCCCN)C(=O)N[C@@H](CCCCN)C(=O)N[C@@H](CO)C(=O)N[C@@H](CCCN=C(N)N)C(=O)N[C@@H](CC(C)C)C(=O)N[C@@H](Cc1ccccc1)C(=O)O)C(C)C (Palmitoyl-RCLSSSAVANRSKKSRLF-OH)

IC50 [7]: 1100 nM
Ki [8]: 600 nM
Structure (SMILES): NCCCC[C@H](NC(=O)CNC(=O)Nc1ccc2c(c1)c(CN1CCCC1)cn2Cc1c(Cl)cccc1Cl)C(=O)N[C@@H](Cc1ccccc1)C(=O)NC(c1ccccc1)c1ccccc1

EC50 [4]: 200 nM
IC50 [13]: 100 nM
Structure (SMILES): CC[C@H](C)[C@H](NC(=O)[C@H](CC(C)C)NC(=O)c1ccco1)C(=O)NCC(=O)N[C@@H](CCCN=C(N)N)C(=O)N[C@@H](CC(C)C)C(=O)N[C@@H](CCCN)C(N)=O (2Furoyl-LIGRL[Orn]-NH2)

IC50 [16]: 700000 nM
Structure (SMILES): CC(C)C[C@H](NC(=O)[C@H](CC(C)C)NC(=O)[C@H](CO)NC(=O)[C@H](Cc1ccccc1)NC(=O)[C@H](CCCNC(=N)N)NC(=O)[C@@H](N)CCCNC(=N)N)C(=O)N[C@@H](CCCNC(=N)N)C(=O)N[C@@H](Cc1ccc(O)cc1)C(N)=O (H-RRFSLLRY-NH2)

EC50 [17]: 10 nM
EC50 [18]: 4 nM
Structure (SMILES): CCCCCCCCCCCCCCCC(=O)OCCOCCOCCNCCC[C@H](NC(=O)[C@H](CC(C)C)NC(=O)[C@H](CCCNC(=N)N)NC(=O)CNC(=O)[C@@H](NC(=O)[C@H](CC(C)C)NC(=O)c1csc(N)n1)[C@@H](C)CC)C(N)=O ({4Thiazolecarbonyl(2-NH2)}-LIGRL[X1]-NH2)
